Experimental data taken from patent US11208387B2, “Macrocyclic broad spectrum antibiotics” (Genentech, Inc., priority 2019, dated 2021).
Converted amounts (≈) assume the structure as drawn. Where two headings read alike, the source gives them in different places.

Columns and labels:
[1] = test system: isolated liver mitochondria; assay: Mitochondrial oxygen consumption rate (OCR) assay; type: biochemical, Sprague-Dawley rats; conditions: isolated rat liver mitochondria, state 3 (S3) respiration
Procedure, shortened: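 Liver mitochondria from male Sprague-Dawley rats preincubated with compounds 1 h on ice (1% DMSO, pH 7.4 buffer), then given glutamate/malate with TTFA (plus ADP for state 3) and phosphorescent O2 probe. Oxygen consumption read 30 min at 30 °C. IC50 (50 μg protein, S3) or UC50 (100 μg, S2) derived from AUC.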

[2] = test system: Acinetobacter baumannii ATCC 17978; assay: Serum MIC, broth micro-dilution; type: cell-based; conditions: Acinetobacter baumannii
Procedure, shortened: (§1)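 CLSI broth micro-dilution MIC run in 50% v/v cation-adjusted Mueller Hinton II broth plus 50% v/v mouse serum. Compounds were serially 2-fold diluted (10 concentrations) from a top concentration of 64, 4, 0.5 or 0.13 μg/mL; inoculum at final OD600 0.0005, incubated 35° C for 22 hours.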

[3] = test system: Escherichia coli strain ATCC 25922; assay: Serum MIC, broth micro-dilution; type: cell-based; conditions: Escherichia coli, read-out: E. coli 25922 Serum MIC
Procedure, shortened: as §1

[4] = test system: Klebsiella pneumoniae ATCC 700603; assay: Serum MIC, broth micro-dilution; type: cell-based; conditions: Klebsiella pneumoniae
Procedure, shortened: as §1

[5] = test system: Pseudomonas aeruginosa PA01; assay: Serum MIC, broth micro-dilution; type: cell-based; conditions: Pseudomonas aeruginosa, read-out: P. aeruginosa 01 Serum MIC
Procedure, shortened: as §1

[6] = ATCC17978, 22 h, read-out: A. baumanii 17978 Serum MIC
[7] = ATCC17978, 22 h, read-out: Acinetobacter baumanii 17978 Serum MIC
[8] = ATCC700603, 22 h, read-out: K pneumoniae 700603 Serum MIC
[9] = ATCC17978, 50% v/v mouse serum in Mueller Hinton II cation adjusted Broth, 35° C., 22 hours, Table 4, read-out: A. baumanii 17978 Serum MIC
[10] = ATCC17978, 50% v/v mouse serum in Mueller Hinton II cation adjusted Broth, 35° C., 22 hours, Table 5, read-out: Acinetobacter baumanii 17978 Serum MIC
[11] = ATCC25922, 50% v/v mouse serum in Mueller Hinton II cation adjusted Broth, 35° C., 22 hours, Table 4
[12] = ATCC700603, 50% v/v mouse serum in Mueller Hinton II cation adjusted Broth, 35° C., 22 hours, Table 4, read-out: K pneumoniae 700603 Serum MIC
[13] = PA01, 50% v/v mouse serum in Mueller Hinton II cation adjusted Broth, 35° C., 22 hours, Table 4

IC50 ([1]; glutamate/malate, Table 3)	IC50 ([1]; compounds of Table 1, Table 6)	MIC ([2]; ATCC17978, 50% v/v mouse serum, compounds of Table 1, Table 7, read-out: A. baumanii 17978 Serum MIC)	MIC ([3]; ATCC25922, 50% v/v mouse serum, compounds of Table 1, Table 7)	MIC ([4]; ATCC700603, 50% v/v mouse serum, compounds of Table 1, Table 7, read-out: K. pneumoniae 700603 Serum MIC)	MIC ([5]; PA01, 50% v/v mouse serum, compounds of Table 1, Table 7)	MIC [2, 9]	MIC [2, 10]	MIC [3, 11]	MIC [4, 12]	MIC [5, 13]	Structure (SMILES)	MIC [2, 6]	MIC [2, 7]	MIC ([3]; ATCC25922, 22 h)	MIC [4, 8]	MIC ([5]; PA01, 22 h)
	20 µM	9.3 µM (≈ 8.01 µg/mL)	0.19 µM (≈ 0.164 µg/mL)	0.73 µM (≈ 0.629 µg/mL)	13 µM (≈ 11.2 µg/mL)						Cc1nc(-c2ccc(C(C)(C)C)cc2)nc(C)c1C(=O)N[C@@H](CCN)C(=O)N(C)[C@@H]1C(=O)N[C@@H](C)C(=O)N[C@H](C(=O)NCC#N)Cc2ccc(O)c(c2)-c2cc1ccc2OCCN (racemic) [Example 254]					
44 µM						4 µM (≈ 4.18 µg/mL)	4 µM (≈ 4.18 µg/mL)	0.25 µM (≈ 0.261 µg/mL)	0.38 µM (≈ 0.397 µg/mL)	6 µM (≈ 6.26 µg/mL)	C[C@@H]1NC(=O)[C@@H](N(C)C(=O)[C@H](CNS(N)(=O)=O)NC(=O)c2c(N)nc(-c3ccc(C(C)(C)C)cc3)nc2C(F)F)c2cc(OC[C@H](O)CN)c(O)c(c2)-c2cc(ccc2OC[C@H](O)CN)C[C@@H](C(=O)O)NC1=O [Example 69, (8S,11S,14S)-14-[[(2S)-2-[[4-amino-2-(4-tert-butylphenyl)-6-(difluoromethyl)-pyrimidine-5-carbonyl]amino]-3-(sulfamoylamino)-propanoyl]-methyl-amino]-3,17-bis[(2R)-3-amino-2-hydroxy-propoxy]-18-hydroxy-11-methyl-10,13-dioxo-9,12-diazatri-cyclo[13.3.1.12,6]icosa-1(18),2(20),3,5,15(19), 16-hexaene-8-carboxylic acid]					
> 250 µM						11 µM (≈ 10.2 µg/mL)	11 µM (≈ 10.2 µg/mL)	0.21 µM (≈ 0.194 µg/mL)	0.17 µM (≈ 0.157 µg/mL)	43 µM (≈ 39.8 µg/mL)	Cc1nc(-c2ccc(C3(C)CC3)cc2)ncc1C(=O)N[C@@H](CCN)C(=O)N(C)[C@@H]1C(=O)N[C@@H](C)C(=O)N[C@H](C(=O)O)Cc2ccc(OC[C@H](O)CN)c(c2)-c2cc1cc(OC[C@H](O)CN)c2O [Example 28, (8S,11S,14S)-18-hydroxy-11-methyl-14-[methyl-[(2S)-4-amino-2-[[4-methyl-2-[4-(1-methylcyclo-propyl)phenyl]-pyrimidine-5-carbonyl]amino]-butanoyl]amino]-10,13-dioxo-3,17-bis[(2R)-3-amino-2-hydroxy-propoxy]-9,12-diazatricyclo-[13.3.1.12,6]icosa-1(18),2(20),3,5,15(19), 16-hexaene-8-carboxylic acid]					
69 µM						12 µM (≈ 12.2 µg/mL)	12 µM (≈ 12.2 µg/mL)	0.75 µM (≈ 0.765 µg/mL)	0.75 µM (≈ 0.765 µg/mL)	6 µM (≈ 6.12 µg/mL)	Cc1nc(-c2ccc3c(c2)CCC3(C)C)nc(N)c1C(=O)N[C@@H](CNS(N)(=O)=O)C(=O)N(C)[C@@H]1C(=O)N[C@@H](C)C(=O)N[C@H](C(=O)O)Cc2ccc(OC[C@H](O)CN)c(c2)-c2cc1cc(OC[C@H](O)CN)c2O [Example 66, (8S,11S,14S)-14-[[(2S)-2-[[4-amino-2-(1,1-dimethylindan-5-yl)-6-methyl-pyrimidine-5-carbonyl]-amino]-3-(sulfamoyl-amino)propanoyl]-methyl-amino]-3,17-bis[(2R)-3-amino-2-hydroxy-propoxy]-18-hydroxy-11-methyl-10,13-dioxo-9,12-diazatricyclo-[13.3.1.12,6]icosa-1(18),2(20),3,5,15(19), 16-hexaene-8-carboxylic acid]					
22 µM						8 µM (≈ 7.42 µg/mL)	8 µM (≈ 7.42 µg/mL)	0.22 µM (≈ 0.204 µg/mL)	0.16 µM (≈ 0.148 µg/mL)	16 µM (≈ 14.8 µg/mL)	Cc1nc(-c2ccc(C(C)(C)C)cc2)ncc1C(=O)N[C@@H](CCN)C(=O)N(C)[C@@H]1C(=O)N[C@@H](C)C(=O)N[C@H](C(=O)O)Cc2ccc(OC[C@H](O)CN)c(c2)-c2cc1cc(OC[C@H](O)CN)c2O [Example 23, (8S,11S,14S)-18-hydroxy-11-methyl-14-[methyl-[(2S)-4-amino-2-[[2-(4-tert-butylphenyl)-4-methyl-pyrimidine-5-carbonyl]amino]-butanoyl]amino]-10,13-dioxo-3,17-bis[(2R)-3-amino-2-hydroxy-propoxy]-9,12-diazatricyclo-[13.3.1.12,6]icosa-1(18),2(20),3,5,15(19), 16-hexaene-8-carboxylic acid]					
> 100 µM						8 µM (≈ 8.06 µg/mL)	8 µM (≈ 8.06 µg/mL)	0.5 µM (≈ 0.504 µg/mL)	0.5 µM (≈ 0.504 µg/mL)	4 µM (≈ 4.03 µg/mL)	Cc1nc(-c2ccc(C(C)(C)C)cc2)nc(N)c1C(=O)N[C@@H](CNS(N)(=O)=O)C(=O)N(C)[C@@H]1C(=O)N[C@@H](C)C(=O)N[C@H](C(=O)O)Cc2ccc(OC[C@@H](O)CN)c(c2)-c2cc1cc(OC[C@@H](O)CN)c2O [Example 64, (8S,11S,14S)-14-[[(2S)-2-[[4-amino-2-(4-tert-butylphenyl)-6-methyl-pyrimidine-5-carbonyl]amino]-3-(sulfamoylamino)-propanoyl]-methyl-amino]-3,17-bis[(2S)-3-amino-2-hydroxy-propoxy]-18-hydroxy-11-methyl-10,13-dioxo-9,12-diazatri-cyclo[13.3.1.12,6]icosa-1(18),2(20),3,5,15(19), 16-hexaene-8-carboxylic acid]					

Structure (SMILES)	IC50 ([1]; glutamate/malate, Table 3)	IC50 ([1]; compounds of Table 1, Table 6)	MIC ([2]; ATCC17978, 50% v/v mouse serum, compounds of Table 1, Table 7, read-out: A. baumanii 17978 Serum MIC)	MIC ([3]; ATCC25922, 50% v/v mouse serum, compounds of Table 1, Table 7)	MIC ([4]; ATCC700603, 50% v/v mouse serum, compounds of Table 1, Table 7, read-out: K. pneumoniae 700603 Serum MIC)	MIC ([5]; PA01, 50% v/v mouse serum, compounds of Table 1, Table 7)	MIC [2, 9]	MIC [2, 10]	MIC [3, 11]	MIC [4, 12]	MIC [5, 13]	MIC [2, 6]	MIC [2, 7]	MIC ([3]; ATCC25922, 22 h)	MIC [4, 8]	MIC ([5]; PA01, 22 h)
Cc1nc(-c2ccc(OCCC(C)(C)C)cc2)ncc1C(=O)N[C@@H](CNS(N)(=O)=O)C(=O)N(C)[C@@H]1C(=O)N[C@@H](C)C(=O)N[C@H](C(=O)O)Cc2ccc(OC[C@H](O)CN)c(c2)-c2cc1cc(OC[C@H](O)CN)c2O [Example 16, (8S,11S,14S)-18-hydroxy-11-methyl-14-[methyl-[(2S)-2-[[2-[4-(3,3-dimethyl-butoxy)phenyl]-4-methyl-pyrimidine-5-carbonyl]amino]-3-(sulfamoylamino)-propanoyl]amino]-10,13-dioxo-3,17-bis[(2R)-3-amino-2-hydroxy-propoxy]-9,12-diazatricyclo-[13.3.1.12,6]icosa-1(18),2(20),3,5,15(19), 16-hexaene-8-carboxylic acid]	33 µM											12 µM (≈ 12.4 µg/mL)	12 µM (≈ 12.4 µg/mL)	0.44 µM (≈ 0.456 µg/mL)	0.63 µM (≈ 0.653 µg/mL)	6 µM (≈ 6.22 µg/mL)
Cc1nc(-c2ccc(OC(C)C)cc2)ncc1C(=O)N[C@@H](CCN)C(=O)N(C)[C@@H]1C(=O)N[C@@H](C)C(=O)N[C@H](C(=O)O)Cc2ccc(OC[C@H](O)CN)c(c2)-c2cc1cc(OC[C@H](O)CN)c2O [Example 20, (8S,11S,14S)-18-hydroxy-11-methyl-14-[methyl-[(2S)-4-amino-2-[[2-(4-isopropoxyphenyl)-4-methyl-pyrimidine-5-carbonyl]amino]-butanoyl]amino]-10,13-dioxo-3,17-bis[(2R)-3-amino-2-hydroxy-propoxy]-9,12-diazatricyclo-[13.3.1.12,6]icosa-1(18),2(20),3,5,15(19), 16-hexaene-8-carboxylic acid]	> 250 µM											16 µM (≈ 14.9 µg/mL)	16 µM (≈ 14.9 µg/mL)	0.58 µM (≈ 0.539 µg/mL)	0.46 µM (≈ 0.428 µg/mL)	64 µM (≈ 59.5 µg/mL)
Cc1nc(-c2ccc(OCCC(C)(C)C)cc2)nc(N)c1C(=O)N[C@@H](CCN)C(=O)N(C)[C@@H]1C(=O)N[C@@H](C)C(=O)N[C@H](C(=O)O)Cc2ccc(OC[C@H](O)CN)c(c2)-c2cc1cc(OC[C@H](O)CN)c2O [Example 18, (8S,11S,14S)-18-hydroxy-11-methyl-14-[methyl-[(2S)-4-amino-2-[[4-amino-2-[4-(3,3-dimethyl-butoxy)phenyl]-6-methyl-pyrimidine-5-carbonyl]amino]-butanoyl]amino]-10,13-dioxo-3,17-bis[(2R)-3-amino-2-hydroxy-propoxy]-9,12-diazatricyclo-[13.3.1.12,6]icosa-1(18),2(20),3,5,15(19), 16-hexaene-8-carboxylic acid]	119 µM											8 µM (≈ 7.9 µg/mL)	8 µM (≈ 7.9 µg/mL)	0.25 µM (≈ 0.247 µg/mL)	0.25 µM (≈ 0.247 µg/mL)	4 µM (≈ 3.95 µg/mL)
